Eleven molecules from patent publication US4699905A, “Perhydrothiazepine derivatives, their preparation and their therapeutic use” (Sankyo Company, Limited, priority 1984, dated 1987) can be followed below.

For orientation: IC50 means the concentration at which inhibition is half-maximal. A high value points to a need for much substance.

The target in the test is T1, ACE extracted from rabbit lungs (Oryctolagus cuniculus, UniProt P12822).
T1 construct: solutions of ACE extracted from rabbit lungs; from tissue; host or cells: rabbit lung
T1 sequence (P12822 34-1310): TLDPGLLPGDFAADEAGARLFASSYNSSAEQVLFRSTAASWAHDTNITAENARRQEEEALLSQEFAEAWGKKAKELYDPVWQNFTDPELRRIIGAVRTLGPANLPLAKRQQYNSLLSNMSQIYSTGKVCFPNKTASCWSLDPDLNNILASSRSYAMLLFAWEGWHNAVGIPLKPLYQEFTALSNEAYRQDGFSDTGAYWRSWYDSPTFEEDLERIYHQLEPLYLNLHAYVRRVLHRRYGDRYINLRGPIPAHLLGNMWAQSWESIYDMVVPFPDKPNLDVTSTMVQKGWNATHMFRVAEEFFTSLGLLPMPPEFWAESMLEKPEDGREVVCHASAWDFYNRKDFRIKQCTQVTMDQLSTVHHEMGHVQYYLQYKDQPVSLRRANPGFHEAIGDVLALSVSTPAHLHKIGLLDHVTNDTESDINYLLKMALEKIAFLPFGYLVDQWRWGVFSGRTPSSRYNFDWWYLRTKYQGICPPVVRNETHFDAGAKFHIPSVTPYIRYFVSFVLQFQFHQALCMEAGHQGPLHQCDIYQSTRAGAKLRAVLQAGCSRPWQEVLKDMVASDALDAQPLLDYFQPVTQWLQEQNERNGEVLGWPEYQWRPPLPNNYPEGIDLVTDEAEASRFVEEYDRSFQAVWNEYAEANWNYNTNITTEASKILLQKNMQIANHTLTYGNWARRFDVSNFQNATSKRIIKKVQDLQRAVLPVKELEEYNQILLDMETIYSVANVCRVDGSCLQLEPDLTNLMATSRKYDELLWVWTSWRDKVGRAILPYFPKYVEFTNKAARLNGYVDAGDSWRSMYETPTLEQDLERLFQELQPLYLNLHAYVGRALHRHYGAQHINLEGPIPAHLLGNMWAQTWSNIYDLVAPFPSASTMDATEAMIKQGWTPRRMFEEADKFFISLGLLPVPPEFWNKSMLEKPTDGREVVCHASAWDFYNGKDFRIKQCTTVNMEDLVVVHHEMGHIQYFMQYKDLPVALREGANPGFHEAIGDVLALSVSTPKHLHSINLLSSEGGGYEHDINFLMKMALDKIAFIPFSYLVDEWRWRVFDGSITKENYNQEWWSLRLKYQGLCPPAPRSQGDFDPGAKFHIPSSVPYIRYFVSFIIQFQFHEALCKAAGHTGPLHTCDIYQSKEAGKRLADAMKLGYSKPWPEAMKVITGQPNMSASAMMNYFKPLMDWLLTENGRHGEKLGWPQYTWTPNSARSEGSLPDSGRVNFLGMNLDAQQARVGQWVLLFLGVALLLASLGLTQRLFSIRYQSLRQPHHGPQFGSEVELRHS
In words: inhibition of ACE activity in vitro (hippurylhistidylleucine substrate; procedure of Cushman et al.). Format: biochemical. Particulars: borate buffer with sodium chloride, pH 8.3, 37° C., 30 minutes, hippuric acid by UV 228 nm. How it is done:
As noted above, the compounds of the present invention have the ability to inhibit the activity of ACE, the enzyme which converts angiotensin I to angiotensin II and also inactivates bradykinin. […] W. Cushman et al. [Biochemical Pharmachology, 20, 1637 (1971)]. […] The enzymatic reaction was allowed to proceed at 37° C. for 30 minutes, after which time the reaction was terminated by adding 1N aqueous hydrochloric acid. […] The residual hippuric acid was dissolved in water. The amount of hippuric acid in the resulting aqueous solution was determined by the absorbency to ultraviolet radiation at 228 nm. These values were then plotted to form a curve indicating the relationship between the amount of hippuric acid formed and the concentration of the test compound. The IC50 value can be obtained by reading on this curve the concentration of the test compound which reduces the amount of hippuric acid formed to one half of that formed when no test compound is present.
`O=C(O)CN1C(=O)[C@@H](N[C@@H](CCc2ccccc2)C(=O)O)CSC[C@H]1c1ccccc1` [A] came in with an IC50 of 1.1 nM.

As to `O=C(O)CN1CC(c2ccccc2)SCC(NC(CCc2ccccc2)C(=O)O)C1=O` (single isomer, unassigned) [C], the IC50 amounted to 2.4 nM.

`O=C(O)CN1CC(c2cccs2)SCC(NC(CCc2ccccc2)C(=O)O)C1=O` (single isomer, unassigned) [E] showed an IC50 of 2.4 nM.

Turning to `O=C(O)CN1CC(c2ccc3ccccc3c2)SCC(NC(CCc2ccccc2)C(=O)O)C1=O` (single isomer, unassigned) [I], half-maximal inhibition (IC50) was put at 2 nM.

`O=C(O)CN1CC(c2cccc3ccccc23)SCC(NC(CCc2ccccc2)C(=O)O)C1=O` (single isomer, unassigned) [H] returned an IC50 of 1.6 nM.

The molecule `O=C(O)CN1C(=O)[C@@H](N[C@@H](CCc2ccccc2)C(=O)O)CSC[C@H]1c1cccs1` [G] gave an IC50 of 1.4 nM.

Take `C[C@@H]1CSC[C@H](N[C@@H](CCc2ccccc2)C(=O)O)C(=O)N1CC(=O)O` [J]: the concentration for half-maximal inhibition (IC50) was found to be 3 nM.

In the case of `O=C(O)CN1CC(c2ccsc2)SCC(NC(CCc2ccccc2)C(=O)O)C1=O` (single isomer, unassigned) [D], it took 2.5 nM to reach half-maximal inhibition (IC50). The IC50 values of the last two molecules are within 1.5-fold of each other.

As to `O=C(O)CN1CC(c2ccco2)SCC(NC(CCc2ccccc2)C(=O)O)C1=O` (single isomer, unassigned) [F], the IC50 was determined as 3 nM.

As for `O=C(O)CN1C(=O)[C@@H](N[C@@H](CCc2ccccc2)C(=O)O)CSC[C@@H]1Cc1ccccc1` [K], it took 1.3 nM to reach half-maximal inhibition (IC50). Compared with the last molecule, the IC50 is about 2.3-fold lower.

The molecule `CC(C)[C@@H]1CSC[C@H](N[C@@H](CCc2ccccc2)C(=O)O)C(=O)N1CC(=O)O` [B] yielded an IC50 of 1.6 nM.
